Test results from US20190135793A1, “HETEROCYCLIC INHIBITORS OF KDM5 FOR THE TREATMENT OF DISEASE” (Board of Regents, The University of Texas System, priority 2017, published 2019).
Where two headings read alike, the source gives them in different places.

Assays:
KDM4C = molecular target: T1, KDM4C (Homo sapiens, UniProt Q9H3R0); assay: KDM4C AlphaScreen assay; format: biochemical; conditions: AlphaScreen; full length KDM4C 0.2 nM; biotinylated H3K9Me3 peptide 3 nM; 30 minutes at room temperature
T1 construct: Full length of KDM5B and KDM4C protein were purchased from Active Motif; purchased Active Motif 31858
T1 sequence (Q9H3R0 1-1056): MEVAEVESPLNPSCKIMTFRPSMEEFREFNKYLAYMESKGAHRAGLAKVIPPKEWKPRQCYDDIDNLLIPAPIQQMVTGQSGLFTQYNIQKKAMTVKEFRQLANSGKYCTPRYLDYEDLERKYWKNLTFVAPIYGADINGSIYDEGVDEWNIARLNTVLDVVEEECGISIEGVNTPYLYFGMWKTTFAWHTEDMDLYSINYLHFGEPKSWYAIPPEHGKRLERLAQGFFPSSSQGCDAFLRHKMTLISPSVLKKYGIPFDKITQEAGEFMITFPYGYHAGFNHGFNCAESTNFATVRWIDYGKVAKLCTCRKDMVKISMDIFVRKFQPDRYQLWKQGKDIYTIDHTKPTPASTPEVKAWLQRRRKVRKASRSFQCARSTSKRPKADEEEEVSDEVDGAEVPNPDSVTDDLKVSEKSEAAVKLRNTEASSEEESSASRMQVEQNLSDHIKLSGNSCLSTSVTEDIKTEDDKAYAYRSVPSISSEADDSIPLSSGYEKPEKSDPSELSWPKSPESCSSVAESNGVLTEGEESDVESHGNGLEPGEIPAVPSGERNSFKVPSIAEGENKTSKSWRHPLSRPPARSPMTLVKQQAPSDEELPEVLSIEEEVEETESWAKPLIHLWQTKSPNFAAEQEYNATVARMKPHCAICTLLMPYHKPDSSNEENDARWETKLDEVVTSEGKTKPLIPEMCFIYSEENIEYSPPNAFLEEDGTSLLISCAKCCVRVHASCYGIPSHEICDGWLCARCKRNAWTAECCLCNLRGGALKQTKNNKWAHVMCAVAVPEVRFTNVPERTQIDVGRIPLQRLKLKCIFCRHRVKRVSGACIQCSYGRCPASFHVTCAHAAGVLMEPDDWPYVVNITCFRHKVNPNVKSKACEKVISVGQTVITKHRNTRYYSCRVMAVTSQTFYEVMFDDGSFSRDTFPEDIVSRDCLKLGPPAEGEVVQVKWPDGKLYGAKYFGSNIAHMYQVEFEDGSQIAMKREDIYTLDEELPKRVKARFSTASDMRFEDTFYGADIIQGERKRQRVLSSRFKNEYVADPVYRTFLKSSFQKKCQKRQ
Protocol: (§1) KDM4C and KDM5B AlphaScreen Assay Material and Method
(§2) Compounds disclosed herein were (and can be) screened using the following assay.
Peptides used in all experiments were purchased from Anaspe. Full length of KDM5B and KDM4C protein were purchased from Active Motif: KDM5B (cat#31832) and KDM4C (Cat #31858). Final concentration of KDM5B and KDM4C used in the assay were 0.5 nM and 0.2 nM. Final concentration of peptides for 5B and 4C used in the assay were 3 nM.
AlphaScreen assays was conducted as following protocol: buffer used to make compound plate or DMSO is composed of 50 mM HEPES pH 7.4, 0.003% Tween-20; buffer used to dilute enzyme is composed of 50 mM HEPES pH 7.4, 0.003% Tween-20, 0.01% BSA, 500 μM TCEP; and buffer used to dilute the substrate is composed of 50 mM HEPES pH 7.4, 0.003% Tween-20, (NH4)2Fe(SO4)2 15 μM, alpha-ketoglutaric acid 4 μM and L-ascorbic acid 100 μM. 4 μL of KDM5B or KDM4C protein were added to 384-well OptiPlate by using multiflow, followed by 4 μl of either buffer or compound. Plates were sealed, spun down and incubated at RT for 15 min. 4 μl of biotinylated peptide was added to the plate, the plate was incubated at room temperature for 25 minutes (KDM5B) and 30 minutes (KDM4C) after sealed and spun down. Streptavidin donor beads and acceptor beads were diluted and mixed in the detection buffer with 7.5 mM EDTA, followed by adding 8 μl of acceptor and donor beads mix to the plate, before the plate was sealed and incubated at room temperature for 3 h or overnight at dark. The plate was read on Envision plate reader (PerkinElmer) using Alphascreen protocol. IC50s were calculated in GraphPad Prism 6.

KDM5B = molecular target: T2, KDM5B (Homo sapiens, UniProt Q9UGL1); assay: biochemical
T2 construct: Full length of KDM5B and KDM4C protein were purchased from Active Motif; purchased Active Motif 31832
T2 sequence (Q9UGL1 whole entry): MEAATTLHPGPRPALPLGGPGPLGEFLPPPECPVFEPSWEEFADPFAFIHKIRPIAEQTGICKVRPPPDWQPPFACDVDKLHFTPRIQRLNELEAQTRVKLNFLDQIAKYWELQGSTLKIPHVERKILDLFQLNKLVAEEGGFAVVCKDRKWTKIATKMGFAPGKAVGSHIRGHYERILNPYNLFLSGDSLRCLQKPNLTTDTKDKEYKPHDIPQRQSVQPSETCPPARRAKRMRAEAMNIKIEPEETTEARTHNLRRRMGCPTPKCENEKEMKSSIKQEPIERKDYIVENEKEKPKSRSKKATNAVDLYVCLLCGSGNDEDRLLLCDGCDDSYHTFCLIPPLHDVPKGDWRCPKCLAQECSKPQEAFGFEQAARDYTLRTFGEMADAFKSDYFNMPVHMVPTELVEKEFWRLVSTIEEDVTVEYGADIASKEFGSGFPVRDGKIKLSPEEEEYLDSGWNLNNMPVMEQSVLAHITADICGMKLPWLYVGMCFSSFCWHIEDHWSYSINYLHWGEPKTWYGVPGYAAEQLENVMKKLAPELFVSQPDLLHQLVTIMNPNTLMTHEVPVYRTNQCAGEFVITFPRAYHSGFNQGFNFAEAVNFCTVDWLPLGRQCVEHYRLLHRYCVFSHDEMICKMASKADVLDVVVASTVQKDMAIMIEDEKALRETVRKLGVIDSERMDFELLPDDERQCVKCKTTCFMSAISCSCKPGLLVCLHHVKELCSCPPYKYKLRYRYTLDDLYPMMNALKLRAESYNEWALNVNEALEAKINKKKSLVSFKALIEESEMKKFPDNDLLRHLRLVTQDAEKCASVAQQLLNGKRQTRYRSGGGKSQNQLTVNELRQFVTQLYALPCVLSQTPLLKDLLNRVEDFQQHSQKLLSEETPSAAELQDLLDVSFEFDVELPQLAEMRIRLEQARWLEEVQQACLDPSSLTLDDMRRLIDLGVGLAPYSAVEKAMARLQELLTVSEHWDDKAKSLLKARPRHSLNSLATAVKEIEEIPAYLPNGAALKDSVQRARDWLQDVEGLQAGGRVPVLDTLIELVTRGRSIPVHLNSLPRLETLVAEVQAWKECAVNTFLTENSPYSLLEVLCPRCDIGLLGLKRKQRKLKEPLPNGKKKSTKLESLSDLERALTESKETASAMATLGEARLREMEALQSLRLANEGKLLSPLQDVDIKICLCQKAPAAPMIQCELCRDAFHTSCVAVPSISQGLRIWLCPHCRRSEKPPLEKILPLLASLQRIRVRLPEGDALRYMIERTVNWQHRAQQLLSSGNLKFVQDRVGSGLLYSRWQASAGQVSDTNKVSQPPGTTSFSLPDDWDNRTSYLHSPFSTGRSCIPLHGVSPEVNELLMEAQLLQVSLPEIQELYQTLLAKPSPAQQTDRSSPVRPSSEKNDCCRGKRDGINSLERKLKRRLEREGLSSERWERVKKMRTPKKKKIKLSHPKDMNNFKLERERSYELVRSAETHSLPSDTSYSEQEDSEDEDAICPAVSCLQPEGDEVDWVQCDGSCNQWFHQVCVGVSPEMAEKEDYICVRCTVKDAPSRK
Protocol: as §1, §2
Peptides used in all experiments were purchased from Anaspe. […] Final concentration of KDM5B and KDM4C used in the assay were 0.5 nM and 0.2 nM. Final concentration of peptides for 5B and 4C used in the assay were 3 nM.
4 μL of KDM5B or KDM4C protein were added to 384-well OptiPlate by using multiflow, followed by 4 μl of either buffer or compound. Plates were sealed, spun down and incubated at RT for 15 min. 4 μl of biotinylated peptide was added to the plate, the plate was incubated at room temperature for 25 minutes (KDM5B) and 30 minutes (KDM4C) after sealed and spun down. Streptavidin donor beads and acceptor beads were diluted and mixed in the detection buffer with 7.5 mM EDTA, followed by adding 8 μl of acceptor and donor beads mix to the plate, before the plate was sealed and incubated at room temperature for 3 h or overnight at dark. The plate was read on Envision plate reader (PerkinElmer) using Alphascreen protocol. IC50s were calculated in GraphPad Prism 6.

[1] = AlphaScreen, full length KDM5B 0.5 nM, biotinylated H3K4Me3 peptide 3 nM, 25 minutes at room temperature, read-out: KDM5B (IC50)

IC50 (KDM4C) [nM] | IC50 (KDM5B) [nM] | IC50 (KDM5B; [1]) [nM] | SMILES
16800 | 1260 |  | Cc1nc(-n2cnc(CO)c2)nc(O)c1C(C)C [Example 24b, 2-[4-(hydroxymethyl)imidazol-1-yl]-5-isopropyl-6-methyl-pyrimidin-4-ol]
613 | 48 |  | Cc1nc(-n2ccnc2CO)nc(O)c1C(C)C [Example 25, 2-[2-(hydroxymethyl)imidazol-1-yl]-5-isopropyl-6-methyl-pyrimidin-4-ol]
15800 | 1070 |  | Cc1nc(-c2cn[nH]c2)nc(O)c1C(C)C [Example 26, 5-Isopropyl-6-methyl-2-(1H-pyrazol-4-yl)pyrimidin-4-ol]
1750 | 32 |  | CC(C)c1c(O)nc(-n2ccnc2)nc1Oc1cccnc1 [Example 28a, 2-(1H-Imidazol-1-yl)-5-isopropyl-6-(pyridin-3-yloxy)pyrimidin-4-ol]
1650 | 19 |  | CC(C)c1c(O)nc(-n2ccnc2)nc1-n1ccnc1 [Example 28b, 2,6-di(1H-imidazol-1-yl)-5-isopropylpyrimidin-4-ol]
502 | 9 |  | CC(C)c1c(O)nc(-n2ccnc2)nc1OCc1cccnc1 [Example 29, 2-(1H-Imidazol-1-yl)-5-isopropyl-6-(pyridin-3-ylmethoxy)pyrimidin-4-ol]
15300 | 345 |  | CC(C)c1c(O)nc(-c2cncs2)nc1-c1cnn(C)c1 [Example 30, 5-isopropyl-6-(1-methyl-1H-pyrazol-4-yl)-2-(thiazol-5-yl)pyrimidin-4-ol]
5680 | 74 |  | Cc1nc(-c2cncn2C)nc(O)c1C(C)C [Example 31, 6-methyl-2-(1-methyl-1H-imidazol-5-yl)-5-(propan-2-yl)pyrimidin-4-ol]
14100 | 4420 |  | Oc1nc(-c2cncs2)ncc1C1CC1 [Example 32, 5-cyclopropyl-2-(thiazol-5-yl)pyrimidin-4-ol]
3640 | 2530 |  | Oc1nc(-c2cncs2)ncc1C(F)(F)F [Example 33, 2-(1,3-Thiazol-5-yl)-5-(trifluoromethyl)pyrimidin-4-ol]
281 |  | 3 | CC(C)c1c(O)nc(-n2ccnc2)nc1-c1cccc(CN)c1 [Example 41, 6-[3-(Aminomethyl)phenyl]-2-(1H-imidazol-1-yl)-5-(propan-2-yl)pyrimidin-4-ol]
554 | 4 |  | CC(C)c1c(O)nc(-n2ccnc2)nc1-c1ccc(CN)cc1 [Example 42, 6-[4-(Aminomethyl)phenyl]-2-(1H-imidazol-1-yl)-5-(propan-2-yl)pyrimidin-4-ol]
1110 |  | 9 | CC(=O)NCc1ccc(-c2nc(-n3ccnc3)nc(O)c2C(C)C)cc1 [Example 43, N-({4-[6-Hydroxy-2-(1H-imidazol-1-yl)-5-(propan-2-yl)pyrimidin-4-yl]phenyl}-methyl)acetamide]
815 | 10 |  | CC(C)c1c(O)nc(-n2ccnc2)nc1-c1cnn(CCC#N)c1 [Example 44, 3-{4-[6-Hydroxy-2-(1H-imidazol-1-yl)-5-(propan-2-yl)pyrimidin-4-yl]-1H-pyrazol-1-yl}propanenitrile]
1140 |  | 10 | CC(C)c1c(O)nc(-n2ccnc2)nc1-c1cnn(Cc2cccnc2)c1 [Example 45, 2-(1H-Imidazol-1-yl)-5-(propan-2-yl)-6-[1-(pyridin-3-ylmethyl)-1H-pyrazol-4-yl]-pyrimidin-4-ol]
1130 |  | 10 | CC(C)c1c(O)nc(-n2ccnc2)nc1-c1cn[nH]c1 [Example 46, 2-(1H-Imidazol-1-yl)-5-(propan-2-yl)-6-(1H-pyrazol-4-yl)pyrimidin-4-ol]
771 | 11 |  | CC(C)c1c(O)nc(-n2ccnc2)nc1-c1cnn(C2CC2)c1 [Example 47, 6-(1-Cyclopropyl-1H-pyrazol-4-yl)-2-(1H-imidazol-1-yl)-5-(propan-2-yl)pyrimidin-4-ol]
1260 |  | 13 | CC(C)c1c(O)nc(-n2ccnc2)nc1-c1ccc(CNS(C)(=O)=O)cc1 [Example 48, N-({4-[6-Hydroxy-2-(1H-imidazol-1-yl)-5-(propan-2-yl)pyrimidin-4-yl]phenyl}-methyl)methanesulfonamide]
716 | 13 |  | CC(C)c1c(O)nc(-n2ccnc2)nc1-c1cnn(C2CCC2)c1 [Example 49, 6-(1-Cyclobutyl-1H-pyrazol-4-yl)-2-(1H 1H-imidazol-1-yl)-5-(propan-2-yl)pyrimidin-4-ol]
1960 | 14 |  | COCCn1cc(-c2nc(-n3ccnc3)nc(O)c2C(C)C)cn1 [Example 51, 2-(1H-Imidazol-1-yl)-6-[1-(2-methoxyethyl)-1H-pyrazol-4-yl]-5-(propan-2-yl)pyrimidin-4-ol]
840 | 14 |  | CC(C)c1c(O)nc(-n2ccnc2)nc1-c1cnn(CC2CC2)c1 [Example 52, 6-[1-(Cyclopropylmethyl)-1H-pyrazol-4-yl]-2-(1H-imidazol-1-yl)-5-(propan-2-yl)pyrimidin-4-ol]
1740 | 15 |  | CC(C)c1c(O)nc(-n2ccnc2)nc1-c1cnn(Cc2ccncc2)c1 [Example 53, 2-(1H-Imidazol-1-yl)-5-(propan-2-yl)-6-[1-(pyridin-4-ylmethyl)-1H-pyrazol-4-yl]-pyrimidin-4-ol]
896 | 15 |  | Cc1ccc(-c2nc(-n3ccnc3)nc(O)c2C(C)C)cc1N [Example 54, 6-(3-Amino-4-methylphenyl)-2-(1H-imidazol-1-yl)-5-(propan-2-yl)pyrimidin-4-ol]
1340 | 15 |  | CC(C)c1c(O)nc(-n2ccnc2)nc1-c1cnn(C)c1 [Example 55, 2-(1H-Imidazol-1-yl)-6-(1-methyl-1H-pyrazol-4-yl)-5-(propan-2-yl)pyrimidin-4-ol]
996 | 15 |  | CCCn1cc(-c2nc(-n3ccnc3)nc(O)c2C(C)C)cn1 [Example 56, 2-(1H-Imidazol-1-yl)-5-(propan-2-yl)-6-(1-propyl-1H-pyrazol-4-yl)pyrimidin-4-ol]
2030 | 16 |  | CNC(=O)c1cccc(-c2nc(-n3ccnc3)nc(O)c2C(C)C)c1 [Example 57, 3-[6-Hydroxy-2-(1H-imidazol-1-yl)-5-(propan-2-yl)pyrimidin-4-yl]-N-methyl-benzamide]
